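Cultured in 96-well plates, cells were exposed to test compound for 48 hours across five concentrations. Abbreviation: GI50, concentration required for 50% inhibition of growth.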 The source made the active and inactive calls. Rule as the data show it: active = GI50 up to about 1.1 µM and inactive = higher.
Experiments:
Assay in all cases: inhibition of tumour cell growth, NCI panel, 48 h
[1] = system: KM12
[2] = system: SF-539
[3] = system: KM-20L2
[4] = system: SF-268
[5] = system: DMS-114
[6] = system: LXFL 529
[7] = system: IGROV-1
[8] = system: U-251
[9] = system: SF-295
[10] = system: OVCAR-3
[11] = system: HOP-62
[12] = system: HCT-116
[13] = system: DMS-273
[14] = system: XF498
[15] = system: UACC-257
[16] = system: UACC-62
[17] = system: TK-10
[18] = system: DLD-1

Measured: GI50

O=C1NCCCC12CCCNC2=O
inactive: [1] > 100 µM | [2] > 100 µM | [3] > 100 µM | [4] > 100 µM | [5] > 100 µM | [6] > 100 µM | [7] > 100 µM | [8] > 100 µM | [9] > 100 µM | [10] > 100 µM | [11] > 100 µM | [12] > 100 µM | [13] > 100 µM | [14] > 100 µM | [15] > 100 µM

O=c1n(Cc2ccccc2)c2ccccc2n1CC1CS1 (configuration not stated)
inactive: [1] > 100 µM | [2] > 100 µM | [3] > 100 µM | [4] > 100 µM | [5] > 100 µM | [6] > 100 µM | [7] > 100 µM | [16] > 100 µM | [17] > 100 µM | [9] > 100 µM | [10] > 100 µM | [11] > 100 µM | [12] > 100 µM | [13] > 100 µM | [14] > 100 µM

CO/C(=N\N=C\c1ccc(Cl)cc1)c1ccncc1
inactive: [1] > 100 µM | [2] > 100 µM | [3] > 100 µM | [4] > 100 µM | [5] > 100 µM | [6] > 100 µM | [7] > 100 µM | [8] > 100 µM | [16] > 100 µM | [17] > 100 µM | [18] > 100 µM | [9] > 100 µM | [10] > 100 µM | [11] > 100 µM | [12] > 100 µM | [13] > 100 µM | [14] > 100 µM | [15] > 100 µM

O=[N+]([O-])c1cc(C(F)(F)F)cc2c1SC1=Nc3ccccc3CN12
inactive: [1] > 100 µM | [2] > 100 µM | [3] > 100 µM | [4] > 100 µM | [5] > 100 µM | [7] > 100 µM | [8] > 100 µM | [16] > 100 µM | [18] > 100 µM | [9] > 100 µM | [10] > 100 µM | [11] > 100 µM | [12] > 100 µM | [13] > 100 µM | [14] > 100 µM | [15] > 100 µM

N/C(=N\O)N/N=C/c1ccc2c(c1)OCCO2
inactive: [1] 5.04 µM | [2] 17.1 µM | [3] 4.13 µM | [4] 4.81 µM | [5] > 28.2 µM | [7] 12.4 µM | [8] 21.3 µM | [18] 19.7 µM | [9] 6.59 µM | [10] 3.15 µM | [11] 19.8 µM | [12] 21.7 µM | [13] 16.6 µM | [14] 8.79 µM | [15] 18.6 µM

CC1CCN(c2cc(-c3cc4ccccc4o3)oc(=O)c2C#N)CC1
inactive: [1] > 100 µM | [2] 89.1 µM | [3] > 100 µM | [4] > 100 µM | [5] > 100 µM | [6] > 100 µM | [7] > 100 µM | [8] > 100 µM | [17] > 100 µM | [18] > 100 µM | [9] 68.9 µM | [12] > 100 µM | [13] > 100 µM | [14] > 100 µM | [15] > 100 µM

CC(C)(C1=NC(C(C)(C)C)CO1)C1=N[C@@H](C(C)(C)C)CO1 (some centres not stated)
inactive: [1] > 100 µM | [2] > 100 µM | [3] > 100 µM | [4] > 100 µM | [5] > 100 µM | [6] > 100 µM | [7] > 100 µM | [8] > 100 µM | [16] > 100 µM | [17] > 100 µM | [18] > 100 µM | [9] > 100 µM | [10] > 100 µM | [11] > 100 µM | [12] > 100 µM | [13] > 100 µM | [14] > 100 µM | [15] > 100 µM

CC/C=C\C/C=C\C/C=C\CCCCCCCC(=O)OCC
inactive: [1] > 100 µM | [2] > 100 µM | [3] > 100 µM | [4] > 100 µM | [5] > 100 µM | [6] > 100 µM | [7] > 100 µM | [8] > 100 µM | [16] > 100 µM | [17] > 100 µM | [18] > 100 µM | [9] > 100 µM | [10] > 100 µM | [11] > 100 µM | [12] > 100 µM | [14] 30.9 µM | [15] > 100 µM

CC(=O)OCc1nnn2c1C(OC(C)=O)CC2 (configuration not stated)
inactive: [1] > 100 µM | [2] > 100 µM | [3] > 100 µM | [5] > 100 µM | [6] > 100 µM | [7] > 100 µM | [8] > 100 µM | [16] > 100 µM | [17] > 100 µM | [18] > 100 µM | [9] > 100 µM | [10] > 100 µM | [12] > 100 µM | [13] > 100 µM | [14] > 100 µM | [15] > 100 µM

CC(=O)Nc1ccc(C(=O)N2N=C(C)/C(=C/c3cccc(O)c3)C2=O)cc1
inactive: [2] > 100 µM | [4] > 100 µM | [5] > 100 µM | [8] > 100 µM | [17] > 100 µM | [18] > 100 µM | [9] > 100 µM | [10] > 100 µM | [11] > 100 µM | [12] > 100 µM | [13] > 100 µM | [14] > 100 µM | [15] > 100 µM

O/N=C/c1ncccc1C1OCCO1
inactive: [1] > 100 µM | [2] > 100 µM | [3] > 100 µM | [4] > 100 µM | [5] > 100 µM | [6] > 100 µM | [7] > 100 µM | [8] > 100 µM | [16] > 100 µM | [17] > 100 µM | [18] > 100 µM | [9] > 100 µM | [10] > 100 µM | [11] > 100 µM | [12] > 100 µM | [13] > 100 µM | [14] > 100 µM | [15] > 100 µM

C#CCOCn1cnc2ncnc(Cl)c21
inactive: [1] > 100 µM | [2] > 100 µM | [3] > 100 µM | [4] > 100 µM | [5] > 100 µM | [6] > 100 µM | [7] > 100 µM | [8] > 100 µM | [16] > 100 µM | [17] > 100 µM | [18] > 100 µM | [9] > 100 µM | [10] > 100 µM | [11] > 100 µM | [12] > 100 µM | [13] > 100 µM | [14] > 100 µM | [15] > 100 µM

CCC1N2CCCCC2[C@@H]2c3[nH]c4ccccc4c3CCN12 (some centres not stated)
inactive: [2] > 100 µM | [3] > 100 µM | [4] > 100 µM | [5] > 100 µM | [6] > 100 µM | [7] > 100 µM | [8] > 100 µM | [16] > 100 µM | [17] > 100 µM | [18] > 100 µM | [9] > 100 µM | [10] > 100 µM | [11] > 100 µM | [12] > 100 µM | [13] > 100 µM | [14] > 100 µM | [15] > 100 µM

COc1cc2c3cc1Oc1c(O)c(OC)cc4c1C(Cc1ccc(O)c(c1)Oc1ccc(cc1)CC3N(C)CC2)N(C)CC4 (configuration not stated)
inactive: [1] 11.1 µM | [2] 2.46 µM | [3] 5.56 µM | [4] 16.8 µM | [5] 20 µM | [6] 4.92 µM | [7] 26.2 µM | [8] 14.2 µM | [16] 23.2 µM | [17] 13.6 µM | [9] 16.1 µM | [10] 16.9 µM | [11] 18.7 µM | [12] 6.55 µM | [13] 13 µM | [14] 19.4 µM | [15] 18.6 µM

c1ccc(N2CCN(CCCN3CCc4c([nH]c5ccccc45)C3c3cccnc3)CC2)cc1 (configuration not stated)
inactive: [1] 51.4 µM | [2] 83.9 µM | [3] 39.4 µM | [5] > 100 µM | [6] > 74.5 µM | [7] > 100 µM | [8] 19.1 µM | [16] > 100 µM | [17] 23.7 µM | [18] 72.8 µM | [9] > 100 µM | [10] > 49.8 µM | [11] > 100 µM | [12] 35.2 µM | [13] > 47 µM | [14] 5.04 µM | [15] 24.6 µM

CCOC(=O)c1cc(Cl)ccc1OC(N)=O
inactive: [1] > 100 µM | [2] > 100 µM | [3] > 100 µM | [4] > 100 µM | [5] > 100 µM | [7] > 100 µM | [8] > 100 µM | [16] > 100 µM | [18] > 100 µM | [9] > 100 µM | [10] > 100 µM | [11] > 100 µM | [12] > 100 µM | [13] > 100 µM | [14] > 100 µM | [15] > 100 µM

CC1(c2ccc(F)cc2)C(C#N)C(=O)NC(=O)C1C#N (configuration not stated)
inactive: [1] > 100 µM | [2] > 100 µM | [3] > 100 µM | [4] > 100 µM | [5] > 100 µM | [6] > 100 µM | [7] > 100 µM | [16] > 100 µM | [17] > 100 µM | [18] > 100 µM | [9] > 100 µM | [10] > 100 µM | [11] 75.2 µM | [13] > 100 µM | [14] > 100 µM | [15] > 100 µM
